Where “and” joins values, the source holds several entries; their conditions need not be identical. Equal values may be shown once.
Columns and labels:
α1B ADR [1] = biological target: T1, α1B ADR (Mesocricetus auratus, UniProt P18841); experiment: NE stimulated PI hydrolysis in RAT-1 cell lines expressing the α1B ADR; type: cell-based, hamster
T1 construct: expressed in transfected cells; host or cells: RAT-1 fibroblasts (vector pZIP-NeoSV(X)1), focus-derived, G418-selected lines
T1 sequence (P18841 1-515): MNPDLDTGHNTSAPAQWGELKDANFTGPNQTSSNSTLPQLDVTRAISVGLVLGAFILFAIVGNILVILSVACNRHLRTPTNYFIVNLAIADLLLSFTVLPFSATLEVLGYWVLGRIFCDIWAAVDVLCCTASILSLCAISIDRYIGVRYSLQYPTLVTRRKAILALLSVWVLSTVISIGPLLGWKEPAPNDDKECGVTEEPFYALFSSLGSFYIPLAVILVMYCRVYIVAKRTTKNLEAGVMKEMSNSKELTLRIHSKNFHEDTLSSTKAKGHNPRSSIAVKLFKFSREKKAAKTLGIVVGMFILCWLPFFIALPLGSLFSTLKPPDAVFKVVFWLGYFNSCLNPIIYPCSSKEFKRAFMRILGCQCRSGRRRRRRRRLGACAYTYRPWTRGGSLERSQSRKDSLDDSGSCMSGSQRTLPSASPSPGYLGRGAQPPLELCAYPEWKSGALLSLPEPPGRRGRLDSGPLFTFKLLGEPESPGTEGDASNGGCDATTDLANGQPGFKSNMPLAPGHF
Protocol: In Table 3, RAT-1 fibroblast cell lines transfected with expression vector alone or derived from transformed foci (α1B ADR or α1B ADR mutant) were selected with G418 (300 μg/ml). Ligand binding was performed on membranes prepared from two clones of each in accordance with known techniques (S. Cotecchia et al., Life Sci. 37, 2389 (1986)). For saturation binding analysis, [^125 ] HEAT concentrations ranged from 10 to 500 pM, nonspecific binding was determined using 1 μM prazosin; in competition experiments, the radioligand concentration was 100 pM. Ligand binding parameters were determined using computerized iterative nonlinear regression analysis (P. Munson, Methods in Enzymol. 92, 5432 (1983)). For assessment of receptor coupling to PI hydrolysis, cells were plated in 30 mm dishes, and labeled overnight with 3 μCi/ml of myo-[2-^3 II(N)]-inositol (1Ci=37 GBq; NEN Research Products) in DMEM containing 3.3% FBS in accordance with known techniques (S. Cotecchia et al., Proc. Natl. Acad. Sci. USA 87, 2896 (1990)). After 40 minute stimulation of cells with 10 μM norepinephrine (NE), inositol phosphates were extracted, and separated on AG 1-X8 anion exchange columns (BioRad Labs) in accordance with known techniques (S. Cotecchia et al., Proc. Natl. Acad. Sci. USA 87, 2896 (1990)). Total inositol phosphates were eluted with 1M ammonium formate/0.1M formic acid. […]

α1B ADR [2] = biological target: T1, α1B ADR; experiment: Ligand binding on membranes of RAT-1 fibroblast cell lines expressing the α1B ADR; design: species or system hamster; details: competition with 100 pM [125I] HEAT; membranes, two clones; read-out: NE Ki
Protocol: In Table 3, RAT-1 fibroblast cell lines transfected with expression vector alone or derived from transformed foci (α1B ADR or α1B ADR mutant) were selected with G418 (300 μg/ml). Ligand binding was performed on membranes prepared from two clones of each in accordance with known techniques (S. Cotecchia et al., Life Sci. 37, 2389 (1986)). For saturation binding analysis, [^125 ] HEAT concentrations ranged from 10 to 500 pM, nonspecific binding was determined using 1 μM prazosin; in competition experiments, the radioligand concentration was 100 pM. Ligand binding parameters were determined using computerized iterative nonlinear regression analysis (P. Munson, Methods in Enzymol. 92, 5432 (1983)). For assessment of receptor coupling to PI hydrolysis, cells were plated in 30 mm dishes, and labeled overnight with 3 μCi/ml of myo-[2-^3 II(N)]-inositol (1Ci=37 GBq; NEN Research Products) in DMEM containing 3.3% FBS in accordance with known techniques (S. Cotecchia et al., Proc. Natl. Acad. Sci. USA 87, 2896 (1990)). After 40 minute stimulation of cells with 10 μM norepinephrine (NE), inositol phosphates were extracted, and separated on AG 1-X8 anion exchange columns (BioRad Labs) in accordance with known techniques (S. Cotecchia et al., Proc. Natl. Acad. Sci. USA 87, 2896 (1990)). Total inositol phosphates were eluted with 1M ammonium formate/0.1M formic acid. Rmax indicates the percentage increase of total labeled inositol phosphates over basal levels following NE stimulation.

[3] = test system: RAT-1 fibroblasts transfected with α1B -ADR mutant; experiment: Focus formation in RAT-1 fibroblasts transfected with α1B-ADR mutant c-DNA; type: cell-based
Protocol: Transfection was carried out as follows: RAT-1 fibroblasts were seeded at a density of 2×10^5 cells in Dulbecco's modified Eagle's medium (DMEM) (Gibco) containing 5% fetal bovine serum (FBS) in 100 mm dishes. Cells were grown overnight, then transfected with 10 μg of DNA (expression vector alone [pZIP-NeoSV(X)1] or containing the α1B-ADR, α1B -ADR mutant [discussed in Example 3 below] or activated Ha-ras c-DNAs) by calcium phosphate precipitation (B. Cullen, Methods Enzymol. 152, 684 (1987)). The α1B -ADR used herein was the hamster α1B -ADR described in S. Cotecchia et al., Proc. Natl. Acad. Sci. USA 85, 7159-7163 (1988). After 16 hours, the DNA precipitate was removed, the cells washed and grown for 24 hours in complete medium. Cells were split 1:5, allowed to attach overnight and then cultured in DMEM with 5% FBS alone, supplemented with 10 μM norepinephrine (NE) or G418 (300 μg/ml). Dishes were supplemented with NE daily, and fed every 3 days with fresh medium.
^1 Cells were cultured for 3 weeks in the presence or absence of 10
μM norepinephrine (NE), supplemented daily, in medium containing 5%
FBS. The number of transformed foci were scored after 4 weeks of culture.
Results represent the average duplicate determinations from two
independent experiments which agreed within 25%; nd = not determined. […]
growth, the number of foci was scored. […]

## NC[C@H](O)c1ccc(O)c(O)c1 [NE, norepinephrine]
α1B ADR [1]; 10 μM NE, 40 minute, increase of total labeled inositol phosphates over basal, two clones
  NE Stimulated PI Hydrolysis Rmax: 758 % increase and 410 % increase
α1B ADR [1]; focus-derived fibroblasts expressing α1B-ADR
  increase in total inositol phosphates following NE stimulation: 400 to 800%
α1B ADR [2]
  Ki: 5.82 µM and 5.33 µM
[3]; RAT-1 transfected with α1B ADR mutant, 10 μM NE supplemented daily, 5% FBS, initially transfected cells (Table 1)
  Foci No. +NE: 11
[3]; focus derived RAT-1 cell lines, α1B ADR mutant, 10 μM NE, 3 weeks of growth, two clones (Table 2)
  Foci No. +NE: > 500
